{
  "source": "patent US20250034182A1",
  "about": "“PHOSPHOLIPID COMPOUNDS AND METHODS OF MAKING AND USING THE SAME” (priority 2021, published 2025)",
  "assay_type_in_all_cases": "cell-based",
  "key": {"HCV Replicon 1B": {"test_system": "HCV Replicon 1B", "assay": "HCV Replicon 1B EC50 (Example Q)", "conditions": "Hepatitis C virus, 72 h, read-out: HCV Replicon 1B EC50 (nM) (per Ex. Q)", "description": "(§1) Compounds were serially diluted in ten steps of 1:3 dilutions in 384-well plates. All serial dilutions were performed in four replicates per compound within the same 384-well plate. An HCV protease inhibitor ITMN-191 at […] was added as a control of 100% inhibition of HCV replication while puromycin at 10 mM was included as a control of 100% cytotoxicity. To each well of a black polystyrene 384-well plate (Greiner Bio-one, Monroe, NC), 90 μL of cell culture medium (without Geneticin) containing 2000 suspended HCV replicon cells was added with a Biotek μFlow workstation. For compound transfer into cell culture plates, 0.4 μL of compound solution from the compound serial dilution plate was transferred to the cell culture plate on a Biomek FX workstation. The DMSO concentration in the final assay wells was 0.44%. The plates were incubated for 3 days at 37° C. with 5% CO2 and 85% humidity. The HCV replicon assay was a multiplex assay, able to assess both cytotoxicity and antireplicon activity from the same well. The CC50 assay was performed first. The media in the 384-well cell culture plate was aspirated, and the wells were washed four times with 100 μL of PBS each, using a Biotek ELX405 plate washer. A volume of 50 μL of a solution containing 400 nM calcein AM (Anaspec, Fremont, CA) in 1×PBS was added to each well of the plate with a Biotek μFlow workstation. The plate was incubated for 30 min at room temperature before the fluorescence signal (excitation 490 nm, emission 520 nm) was measured with a Perkin-Elmer Envision plate reader. The EC50 assay was performed in the same wells as the CC50 assay. The calcein-PBS solution in the 384-well cell culture plate was aspirated with a Biotek ELX405 plate washer. A volume of 20 μL of Dual-Glo luciferase buffer (Promega, Madison, WI) was added to each well of the plate with a Biotek μFlow Workstation. The plate was incubated for 10 min at room temperature. A volume of 20 μL of a solution containing a 1:100 mixture of Dual-Glo Stop & Glo substrate (Promega, Madison, WI) and Dual-Glo Stop & Glo buffer (Promega, Madison, WI) was added to each well of the plate with a Biotek μFlow Workstation. The plate was then incubated at room temperature for 10 min before the luminescence signal was measured with a Perkin-Elmer Envision Plate Reader."}, "[1]": {"assay": "HCV Replicon 1B CC50, calcein AM (Example Q)", "conditions": "HCV replicon cells (1B), calcein AM fluorescence, read-out: HCV Replicon 1B CC50 (nM) (per Ex. Q)", "description": "as §1"}, "[2]": {"test_system": "CAN97-83-GFP1 (A2a) hMPV in H1-HeLa cells", "assay": "hMPV H1-Hela EC50, anti-nucleoprotein ELISA (Example X)", "conditions": "human metapneumovirus, 96 h, read-out: hMPV H1-Hela EC50 (nM) (per Ex. X)", "description": "The human metapneumoavirus (hMPV) anti-viral assay is an anti-nucleoprotein ELISA performed in infected H1-HeLa cells. H1-HeLa cells were maintained in Dulbecco's Modified Eagle's Medium with high glucose (Gibco, Cat #: 11995073) supplemented with 10% FBS (HyClone, Cat #: SH303396.03), 100 units/mL penicillin and 100 μg/mL streptomycin (Gibco, Cat #: 15140122). One day before infection, H1-HeLa cells were seeded into 96-well plates (Corning, Cat. #: 3903) at 0.1 mL/well at 1.5×10^5 cells/mL in Opti-MEM (Gibco, Cat #: 31985070) supplemented with 2% FBS, and were incubated at 37° C. in a 100% humid atmosphere containing 5% (v/v) CO2 overnight. On the next day, CAN97-83-GFP1 (A2a) hMPV was diluted in Opti-MEM medium containing 200 μg/mL CaCl2) and 2 μg/mL TPCK treated trypsin and distributed to the 96-well plates at 0.1 mL/well for an MOI=0.1. Test compounds were distributed to each well using a HP D300e digital dispenser with a final volume of 200 µL/well. After the plates were centrifuged at 700 g for one hour at room temperature, they were maintained in a humidified chamber at 37-C with 5% (v/v) CO2 for 96 hours. After the incubation, the medium was removed, and the plates were fixed with 0.1 mL/well 1% formaldehyde for 15 min at room temperature. The fixative was removed, the plates were air dried for 30-60 minutes, and then permeabilized with 0.1 mL/well 0.5% Triton X-100 in PBS for five minutes at room temperature. Following permeabilization, the plates were washed once with 0.1 mL/well blocking buffer consisting of 10% FBS (HyClone, Cat #: SH303396.03), 5% dry milk (AmericanBio, Cat #: AB10109-01000), and 0.1% Tween 20 (EMD Millipore, Cat #655204) in PBS. The plates were blocked with 0.1 mL/well blocking buffer for 60 minutes at 37° C. afterward. The blocking buffer was removed and 0.05 mL/well human metapneumovirus nucleocapsid antibody (Sigma, Cat #MAB80121) diluted 1:500 in Blocking buffer was added and incubated for two hours at 37-C. The plates were then washed with 0.2 mL/well 0.1% Tween 20/PBS five times, followed by addition of 0.05 mL/well of horseradish peroxidase (HRP) conjugated goat anti-mouse IgG antibody (Fisher Scientific, Cat #501077607) at 1:2000 dilution in the blocking buffer. After one-hour incubation at 37-C, plates were washed five times with 0.2 mL/well 0.1% tween 20 in PBS. The HRP signals were developed by adding 0.1 mL/well of TMB reagent (Thermo Scientific, Cat #: ENN301) and incubating at room until the positive control was apparent. At that point, the reaction was stopped by adding 0.1 mL/well TMB stop solution (SeraCare, Cat #: 5150-0021). The absorbance was measured at 450 nm with an EnVision plate reader. The relative absorbance was calculated by normalizing the absorbance of the compound-treated groups to that of the DMSO-treated groups (set as 100%). EC50 values were calculated using a nonlinear four parameter variable slope regression model."}, "[3]": {"conditions": "HCV replicon cells, 3 days, Dual-Glo luciferase"}},
  "note": "Where two headings read alike, the source gives them in different places.",
  "data": [
    {"compound": "CCCCCCCCCCCCCCCC[C@@H](COP(=O)(O)OC[C@@]1(C#N)O[C@@H](c2ccc3c(N)ncnn23)[C@H](O)[C@@H]1O)OCc1cc(F)cc(C#N)c1", "note": "[Compound 79, ((2R,3S,4R,5S)-5-(4-aminopyrrolo[2,1-f][1,2,4]triazin-7-yl)-2-cyano-3,4-dihydroxytetrahydrofuran-2-yl)methyl ((S)-2-((3-cyano-5-fluorobenzyl)oxy)octadecyl) hydrogen phosphate]", "values": [
      {"measurement": "EC50", "setting": "HCV Replicon 1B; [3]", "value": 24300, "unit": "nM"},
      {"measurement": "CC50 at 3 days", "setting": "[1]", "value": "> 44400", "unit": "nM"},
      {"measurement": "EC50", "setting": "[2]", "value": 1610, "unit": "nM"}
    ]},
    {"compound": "CCCCCCCCCCCCCCC[C@H](COP(=O)(O)OC[C@@]1(C#N)O[C@@H](c2ccc3c(N)ncnn23)[C@H](O)[C@@H]1O)OCc1cc(F)cc(C#N)c1", "note": "[Compound 80, ((2R,3S,4R,5S)-5-(4-aminopyrrolo[2,1-f][1,2,4]triazin-7-yl)-2-cyano-3,4-dihydroxytetrahydrofuran-2-yl)methyl ((R)-2-((3-cyano-5-fluorobenzyl)oxy)heptadecyl) hydrogen phosphate]", "values": [
      {"measurement": "EC50", "setting": "HCV Replicon 1B; [3]", "value": 32400, "unit": "nM"},
      {"measurement": "CC50 at 3 days", "setting": "[1]", "value": "> 44400", "unit": "nM"},
      {"measurement": "EC50", "setting": "[2]", "value": 668, "unit": "nM"}
    ]},
    {"compound": "CCCCCCCCCCCCCCCCCC[C@H](COP(=O)(O)OC[C@@]1(C#N)O[C@@H](c2ccc3c(N)ncnn23)[C@H](O)[C@@H]1O)OCc1cc(Cl)cc(C#N)c1", "note": "[Compound 81, ((2R,3S,4R,5S)-5-(4-aminopyrrolo[2,1-f][1,2,4]triazin-7-yl)-2-cyano-3,4-dihydroxytetrahydrofuran-2-yl)methyl ((R)-2-((3-chloro-5-cyanobenzyl)oxy)icosyl) hydrogen phosphate]", "values": [
      {"measurement": "EC50", "setting": "HCV Replicon 1B; [3]", "value": 10700, "unit": "nM"},
      {"measurement": "CC50 at 3 days", "setting": "[1]", "value": "> 44400", "unit": "nM"},
      {"measurement": "EC50", "setting": "[2]", "value": 453, "unit": "nM"}
    ]},
    {"compound": "CCCCCCCCCCCCCCCCCCC[C@H](COP(=O)(O)OC[C@@]1(C#N)O[C@@H](c2ccc3c(N)ncnn23)[C@H](O)[C@@H]1O)OCc1cc(Cl)cc(C#N)c1", "note": "[Compound 82, ((2R,3S,4R,5S)-5-(4-aminopyrrolo[2,1-f][1,2,4]triazin-7-yl)-2-cyano-3,4-dihydroxytetrahydrofuran-2-yl)methyl ((R)-2-((3-chloro-5-cyanobenzyl)oxy)henicosyl) hydrogen phosphate]", "values": [
      {"measurement": "EC50", "setting": "HCV Replicon 1B", "value": 11300, "unit": "nM"},
      {"measurement": "CC50 at 3 days", "setting": "[1]", "value": "> 44400", "unit": "nM"},
      {"measurement": "EC50", "setting": "[2]", "value": 1120, "unit": "nM"}
    ]}
  ]
}
